From PMC8197367, “Comparative Antimicrobial Activity of Hp404 Peptide and Its Analogs against Acinetobacter baumannii” (International Journal of Molecular Sciences, 2021)
Where no end group is shown, it is not given here.

Tests used:
[1] = tested on: E. coli ATCC 25922; experiment: MIC, broth microdilution; assay type: cell-based, Escherichia coli; conditions: two-fold broth microdilution, LB, 2 × 10^5 CFU/mL, 37 °C, 18 h, read at 600 nm, three independent experiments
Procedure: (§1) The experiment was performed in triplicate.

[2] = tested on: HaCaT cells; conditions: 50 μM peptide, 24 h, MTT assay
Procedure: The cytotoxicity of the peptides against mammalian cells was calculated using the MTT assay. Human keratinocyte HaCaT cells were incubated in Dulbecco’s modified Eagle’s medium (DMEM) supplemented with 10% fetal bovine serum and 1% penicillin at 37 °C with 5% CO2. HaCaT cells were added at 2 × 10^5 cells/mL to DMEM supplemented with 10% fetal bovine serum and placed in 96-well plates. The plates were incubated overnight at 37 °C in a CO2 incubator. Peptides were serially diluted two-fold in DMEM, added to the cell cultures and incubated for 24 h at 37 °C. MTT solution (5 mg/mL) was added to each well and incubated for 1 h at 37 °C. The media was discarded, and the formazan crystals were dissolved in 100 μL dimethyl sulfoxide. The absorbance was measured using a Versa-Max microplate ELISA reader (Molecular Devices, Sunnyvale, CA, USA) at 570 and 650 nm. As a […], 0.1% Triton X-100 was used.

[3] = tested on: A. baumannii KCTC 2508; conditions: NB supplemented with 150 mM NaCl, triplicate
Procedure: (§2) Hp1404 and its analog peptides activity against both gram-positive and gram-negative bacterial strains were tested using the broth microdilution method. Briefly, S. aureus (ATCC 25923, ATCC 29213) and B. cereus KCTC 1012 were cultured overnight at 37 °C in tryptic soy broth (TSB). P. aeruginosa ATCC 27853, K. pneumoniae KCTC 2208, A. baumannii KCTC 2508 and S. typhimurium ATCC 14028 were cultured overnight at 37 °C in nutrient broth (NB). E. coli ATCC 25922 was cultured overnight at 37 °C in luria bertani (LB). L. monocytogenes KCTC 3710 was cultured overnight at 37 °C in brain heart infusion (BHI). The cultures were diluted with fresh medium at a density of 2 × 10^5 CFU/mL. Peptides were serially diluted in sodium phosphate buffer (pH 7.2) to a final concentration of 25 μM. In a 96-well plate, 50-μL bacterial aliquots were mixed with 50 μL peptide solution. After incubation at 37 °C for 18 h, the MIC was determined using a plate reader at 600 nm. The experiment was performed in triplicate.
To determine whether antibacterial activity was affected by the presence of salts, experiments were conducted as previously reported. We determined the MICs of NB supplemented with 150 mM NaCl. MIC assays were performed as described above. The assay was performed in triplicate.

[4] = tested on: B. cereus KCTC 1012; experiment: MIC, broth microdilution; assay type: cell-based, Bacillus cereus; conditions: two-fold broth microdilution, TSB, 2 × 10^5 CFU/mL, 37 °C, 18 h, read at 600 nm, three independent experiments
Procedure: as §1

[5] = tested on: P. aeruginosa ATCC 27853; experiment: MIC, broth microdilution; assay type: cell-based; conditions: two-fold broth microdilution, NB, 2 × 10^5 CFU/mL, 37 °C, 18 h, read at 600 nm, three independent experiments
Procedure: as §1

[6] = tested on: K. pneumoniae KCTC 2208; experiment: MIC, broth microdilution; assay type: cell-based; conditions: two-fold broth microdilution, NB, 2 × 10^5 CFU/mL, 37 °C, 18 h, read at 600 nm, three independent experiments
Procedure: as §1

[7] = tested on: A. baumannii KCTC 2508; experiment: MIC, broth microdilution; assay type: cell-based, Acinetobacter baumannii; conditions: two-fold broth microdilution, NB, 2 × 10^5 CFU/mL, 37 °C, 18 h, read at 600 nm, no added salt, three independent experiments
Procedure: as §1

[8] = tested on: L. monocytogenes KCTC 3710; experiment: MIC, broth microdilution; assay type: cell-based, Listeria monocytogenes; conditions: two-fold broth microdilution, BHI, 2 × 10^5 CFU/mL, 37 °C, 18 h, read at 600 nm, three independent experiments
Procedure: as §1

[9] = tested on: S. typhimurium ATCC 14028; experiment: MIC, broth microdilution; assay type: cell-based, Salmonella typhimurium; conditions: two-fold broth microdilution, NB, 2 × 10^5 CFU/mL, 37 °C, 18 h, read at 600 nm, three independent experiments
Procedure: as §1

[10] = tested on: A. baumannii #2; experiment: microbe, parasite or virus in culture; conditions: A. baumannii #2 isolated from patient; broth microdilution, 37 °C, 18 h; three independent experiments
From the text: (§3) Staphylococcus aureus ATCC 25923, S. aureus ATCC 29213, P. aeruginosa ATCC 27853, Escherichia coli ATCC 25922 and Salmonella typhimurium ATCC 14028 strains were obtained from the American Type Culture Collection (ATCC, Manassas, VA, USA). Listeria monocytogenes KCTC 3710, Bacillus cereus KCTC 1012, K. pneumoniae KCTC 2208 and A. baumannii KCTC 2508 were obtained from the Korean Collection for Type Cultures (KRIBB, Daejeon, South Korea). Clinical isolates of A. baumannii strains were collected from Eulji University Hospital (Seoul, South Korea).
as §2

[11] = tested on: A. baumannii 409081; experiment: microbe, parasite or virus in culture; conditions: A. baumannii 409081 isolated from patient; broth microdilution, 37 °C, 18 h; three independent experiments
From the text: as §3, §2

[12] = tested on: A. baumannii 907233; experiment: microbe, parasite or virus in culture; conditions: A. baumannii 907233 isolated from patient; broth microdilution, 37 °C, 18 h; three independent experiments
From the text: as §3, §2

[13] = tested on: A. baumannii #4; experiment: microbe, parasite or virus in culture; conditions: A. baumannii #4 isolated from patient; broth microdilution, 37 °C, 18 h; three independent experiments
From the text: as §3, §2

[14] = tested on: A. baumannii #3; experiment: microbe, parasite or virus in culture; conditions: A. baumannii #3 isolated from patient; broth microdilution, 37 °C, 18 h; three independent experiments
From the text: as §3, §2

[15] = tested on: A. baumannii 719705; experiment: microbe, parasite or virus in culture; conditions: A. baumannii 719705 isolated from patient; broth microdilution, 37 °C, 18 h; three independent experiments
From the text: as §3, §2

[16] = tested on: S. aureus ATCC 29213; experiment: MIC, broth microdilution; assay type: cell-based, Staphylococcus aureus; conditions: two-fold broth microdilution, TSB, 2 × 10^5 CFU/mL, 37 °C, 18 h, read at 600 nm, three independent experiments
Procedure: as §1

[17] = tested on: S. aureus ATCC 25923; experiment: MIC, broth microdilution; assay type: cell-based, Staphylococcus aureus; conditions: two-fold broth microdilution, TSB, 2 × 10^5 CFU/mL, 37 °C, 18 h, read at 600 nm, three independent experiments
Procedure: as §1

[18] = tested on: mouse red blood cells; experiment: Hemolytic assay; assay type: cell-based; conditions: 50 μM peptide (highest tested concentration); 8% mouse red blood cells in PBS, 1 h, 37 °C, absorbance 414 nm, vs 0.1% Triton X-100
Procedure: The hemolytic activity of the peptides against mouse erythrocytes was determined using red blood cells. Fresh mouse red blood cells were washed three times and resuspended in PBS to attain an 8% dilution. Peptides were serially diluted to a final concentration of 50 μM. Next, 100 µL peptide solution was added to 100 μL of mouse red blood cells, wrapped with aluminum foil and incubated for 1 h at 37 °C. The mixture was then centrifuged at 1500× g for 10 min. The supernatant was transferred into a new 96-well plate, and the absorbance of the supernatant was measured at 414 nm. As positive and negative controls, […] in mouse red blood cells were used. Hemolysis was evaluated according to the following equation:
Hemolysis (%) = [(Abs414 nm in the peptide solution − Abs414 nm in PBS)/(Abs414 nm in 0.1% Triton X-100 − Abs414 nm in PBS)] × 100.

[19] = calcein-loaded LUVs, Figure 4c
Procedure: Peptide-induced membrane permeability was monitored be measuring calcein dye emission in calcein-loaded LUVs. We prepared the lipid mixture, and PC:CH (2:1, w/w) and PC:CH:SM liposomes (1:1:1, w/w) were prepared with 70 mM calcein buffer. A Sephadex G-50 column was used to separate calcein-loaded liposomes from free calcein dye. The LUVs (10 μM) were mixed with various concentrations of the peptide on a 96-well black plate. The fluorescence intensity was measured at excitation and emission wavelengths of 480 and 520 nm, respectively.

[20] = Calcein leakage assay; conditions: PC:CH LUVs (10 μM) loaded with calcein; excitation 480 nm, emission 520 nm; various peptide concentrations
Procedure: (§4) Peptide-induced membrane permeability was monitored be measuring calcein dye emission in calcein-loaded LUVs [49]. We prepared the lipid mixture, and PC:CH (2:1, w/w) and PC:CH:SM liposomes (1:1:1, w/w) were prepared with 70 mM calcein buffer. A Sephadex G-50 column was used to separate calcein-loaded liposomes from free calcein dye. The LUVs (10 μM) were mixed with various concentrations of the peptide on a 96-well black plate. The fluorescence intensity was measured at excitation and emission wavelengths of 480 and 520 nm, respectively.

[21] = Calcein leakage assay; conditions: PC:CH:SM (1:1:1, w/w) LUVs (10 μM) loaded with calcein; excitation 480 nm, emission 520 nm; various peptide concentrations
Procedure: as §4

Row | Substance | MIC [1] | Cell viability [2] | MIC in the presence of 150 mM NaCl [3] | MIC [4] | MIC [5] | MIC [6] | MIC [7] | MIC [8] | MIC [9] | MIC [10] | MIC [11] | MIC [12] | MIC [13] | MIC [14] | MIC [15] | MIC [16] | MIC [17] | hemolytic activity [18] | other results
1 | GILGKLWEGVKSII-NH2 [Hp1404-I] | 12.5 µM | 100% | 12.5 µM | 25 µM | 25 µM | 25 µM | 3.13 µM | 6.25 µM | 3.13 µM | 3.13 µM | 3.13 µM | 3.13 µM | 3.13 µM | 3.13 µM | 6.25 µM | 12.5 µM | 3.13 µM | – | –
2 | GILGKLWEGVKSIV-NH2 [Hp1404-V] | 25 µM | 100% | 25 µM | 25 µM | >25 µM | >25 µM | 6.25 µM | 25 µM | 6.25 µM | 6.25 µM | 6.25 µM | 6.25 µM | 6.25 µM | 6.25 µM | 12.5 µM | 25 µM | 6.25 µM | no hemolytic activity | –
3 | GILGKLWEGVKSIW-NH2 [Hp1404-W] | 12.5 µM | 100% | 6.25 µM | 25 µM | 25 µM | 12.5 µM | 3.13 µM | 6.25 µM | 3.13 µM | 3.13 µM | 3.13 µM | 3.13 µM | 3.13 µM | 3.13 µM | 3.13 µM | 12.5 µM | 3.13 µM | 15.9% | –
4 | GILGKLWEGVKSIL-NH2 [Hp1404-L] | 12.5 µM | 62.4% | 6.25 µM | 12.5 µM | 12.5 µM | 12.5 µM | 3.13 µM | 3.13 µM | 1.56 µM | 3.13 µM | 3.13 µM | 3.13 µM | 3.13 µM | 3.13 µM | 3.13 µM | 6.25 µM | 1.56 µM | 45.8% | –
5 | GILGKLWEGVKSIK-NH2 [Hp1404-K] | >25 µM | – | – | >25 µM | >25 µM | >25 µM | 25 µM | >25 µM | 12.5 µM | – | – | – | – | – | – | >25 µM | 25 µM | no hemolytic activity | calcein leakage fluorescence (bioimaging) [19]: no fluorescence was observed; calcein release (fluorescence intensity) [20]: did not release calcein; calcein release (fluorescence intensity) [21]: did not release calcein
6 | GILGKLWEGVKSIA-NH2 [Hp1404-A] | >25 µM | 100% | – | >25 µM | >25 µM | >25 µM | 25 µM | >25 µM | 25 µM | – | – | – | – | – | – | >25 µM | 12.5 µM | no hemolytic activity | calcein leakage fluorescence (bioimaging) [19]: no fluorescence was observed; calcein release (fluorescence intensity) [20]: did not release calcein; calcein release (fluorescence intensity) [21]: did not release calcein
7 | GILGKLWEGVKSIF-NH2 [Hp1404, reference compound] | 12.5 µM | 72.3% | 6.25 µM | 12.5 µM | 12.5 µM | 12.5 µM | 3.13 µM | 3.13 µM | 3.13 µM | 3.13 µM | 3.13 µM | 3.13 µM | 3.13 µM | 3.13 µM | 3.13 µM | 6.25 µM | 3.13 µM | 49.2% | –
